Source: patent publication US11970497B2, “Tricyclic AKR1C3 dependent KARS inhibitors” (Novartis AG, priority 2019, dated 2024)

Tests used:
Experiment in all cases: Expanded lung cancer cell line proliferation assay
Format in all cases: cell-based
RERF-LC-MS = settings: 72 h, average of PrestoBlue and Cell Titer Glo, AKR1C3 221.6 TPM, read-out: Absolute Qualified AC50
Excerpt: (§1) Cellular Proliferation Assay to Assess Compound Activity in an Expanded Panel of 57 NRF2 Pathway Mutant and Wild Type Lung Cancer Cell Lines.
(§2) Both the PrestoBlue Cell Viability Reagent and Cell Titer Glo were multiplexed together as the final assay readout. PrestoBlue is a cell permeable resazurin-based solution that utilizes the reducing power of living cells to quantitatively measure their proliferation. Cell Titer Glo measures the amount of ATP present, an indicator of metabolically active cells.
(§3) Expanded Lung Cancer Cell Line Proliferation Assay Outline, Analysis and Profiling Results
(§4) Cells were seeded into 384 well assay plates (Greiner Bio-One, Catalog #781080) using the Thermo Scientific Matrix WellMate microplate dispenser and Thermo Scientific Matrix WellMate small bore disposable tubing cartridges (Catalog #201-30002) in 30 μl of growth media (RPMI-1640 supplemented with 10% fetal bovine serum and 1% penicillin/streptomycin) per well (1000 to 2000 cells/well depending on doubling time). Following cell plating, assay plates were placed into tissue culture incubator at 37° C./5% CO2 overnight. The next day one assay plate for each cell line was used for a Day 0 Cell Titer Glo and PrestoBlue readout. 3 μl of PrestoBlue Cell Viability Reagent (Thermo Scientific, Catalog #A13262) was added to each well and then assay plates were incubated at 37° C./5% CO2 for 30 minutes prior to fluorescence readout on the EnVision 2105 multimode plate reader (Perkin Elmer). Following the PrestoBlue readout 18 μl of Cell Titer Glo (Promega, Catalog #G7572) was then added to each well, allowing plates to incubate at room temperature for 10 minutes prior to luminescence readout on the EnVision. Compound was then added to the remaining assay plates (each cell line run in triplicates) using the Labcyte Inc Echo 555 acoustic liquid handler. Compounds were arrayed into a Labcyte Inc Echo qualified 384 well LDV microplate (Cat #LP-0200-GNF10). Compounds were serially diluted 1:3.16 to generate an 8 point dose response for a final top concentration of 1 μM. DMSO (0.3%) was used as the neutral control (NC) and MG132 (30 μM) was used as the active control (AC). 90 nl of compounds were added to 30 μl of cells using the Labcyte Inc Echo 555 acoustic liquid handler for a final DMSO assay concentration of 0.3%. Following compound addition, assay plates were spun down in a tabletop centrifuge at 500 rpm for 1 minute and then placed into tissue culture incubator at 37° C./5% CO2 for 72 h. Following the 72 h incubation, all assay plates were readout using PrestoBlue and Cell Titer Glo using the same conditions previously described for the Day 0 readout. The Day 0 readout (untreated cells) was used to compare to the 72 h DMSO treated samples on each assay plate as a way of tracking each cell line's fold growth. NC1 control based normalization was used for data analysis in Helios, which incorporates the DMSO neutral control (NC) and MG132 active control (AC) for generating dose response curves that are then used to calculate the Absolute Qualified AC50 calls for each compound and cell line.
(§5) NC1 normalization calculation model: NC1: xn=±(x−NC)/(AC−NC)
(§6) +/− is set by the inhibition type parameter setting where NC and AC are averages (mean or median) over the corresponding NC and AC well values. The Qualified Absolute AC50 values for Compound 36 and Compound 40 are listed in the table below and are represented as the average activity in both the PrestoBlue and Cell Titer Glo assay readouts.
(§7) Absolute Qualified AC50 Values Listed Below are a Representation of Each Compounds' Average Activity in Both the PrestoBlue and Cell Titer Glo Assay Readouts.

LXF-289 = settings: Homo sapiens; LXF-289, 72 h, average of PrestoBlue and Cell Titer Glo; AKR1C3 358.4 TPM; read-out: Absolute Qualified AC50
Excerpt: as §1, §2, §3, §4, §5, §6, §7

PC-14 = settings: Homo sapiens; PC-14, 72 h, average of PrestoBlue and Cell Titer Glo; AKR1C3 1466.3 TPM; read-out: Absolute Qualified AC50
Excerpt: as §1, §2, §3, §4, §5, §6, §7

HCC78 = settings: Homo sapiens; HCC78, 72 h, average of PrestoBlue and Cell Titer Glo; AKR1C3 3 TPM; read-out: Absolute Qualified AC50
Excerpt: as §1, §2, §3, §4, §5, §6, §7

ChaGo-K-1 = settings: Homo sapiens; ChaGo-K-1, 72 h, average of PrestoBlue and Cell Titer Glo; AKR1C3 1.5 TPM; read-out: Absolute Qualified AC50
Excerpt: as §1, §2, §3, §4, §5, §6, §7

CORL-279 = settings: Homo sapiens, COR-L279; CORL-279, 72 h, average of PrestoBlue and Cell Titer Glo; AKR1C3 3.6 TPM; read-out: Absolute Qualified AC50
Excerpt: as §1, §2, §3, §4, §5, §6, §7

NCI-H1573 = settings: Homo sapiens; NCI-H1573, 72 h, average of PrestoBlue and Cell Titer Glo; AKR1C3 306.2 TPM; read-out: Absolute Qualified AC50
Excerpt: as §1, §2, §3, §4, §5, §6, §7

NCI-H1792 = settings: Homo sapiens; NCI-H1792, 72 h, average of PrestoBlue and Cell Titer Glo; AKR1C3 418.6 TPM; read-out: Absolute Qualified AC50
Excerpt: as §1, §2, §3, §4, §5, §6, §7

HCC-44 = settings: Homo sapiens, HCC44; HCC-44, 72 h, average of PrestoBlue and Cell Titer Glo; AKR1C3 134.3 TPM; read-out: Absolute Qualified AC50
Excerpt: as §1, §2, §3, §4, §5, §6, §7

LCLC-103H = settings: Homo sapiens, 72 h, average of PrestoBlue and Cell Titer Glo, AKR1C3 2.6 TPM, read-out: Absolute Qualified AC50
Excerpt: as §1, §2, §3, §4, §5, §6, §7

A427 = settings: Homo sapiens, A-427; A427, 72 h, average of PrestoBlue and Cell Titer Glo; AKR1C3 0.2 TPM; read-out: Absolute Qualified AC50
Excerpt: as §1, §2, §3, §4, §5, §6, §7

NCI-H2405 = settings: Homo sapiens; NCI-H2405, 72 h, average of PrestoBlue and Cell Titer Glo; AKR1C3 189.1 TPM; read-out: Absolute Qualified AC50
Excerpt: as §1, §2, §3, §4, §5, §6, §7

NCI-H524 = settings: Homo sapiens; NCI-H524, 72 h, average of PrestoBlue and Cell Titer Glo; AKR1C3 0.8 TPM; read-out: Absolute Qualified AC50
Excerpt: as §1, §2, §3, §4, §5, §6, §7

DV-90 = settings: Homo sapiens; DV-90, 72 h, average of PrestoBlue and Cell Titer Glo; AKR1C3 48.9 TPM; read-out: Absolute Qualified AC50
Excerpt: as §1, §2, §3, §4, §5, §6, §7

SMILES | AC50 (RERF-LC-MS) | AC50 (LXF-289) | AC50 (PC-14) | AC50 (HCC78) | AC50 (ChaGo-K-1) | AC50 (CORL-279) | AC50 (NCI-H1573) | AC50 (NCI-H1792) | AC50 (HCC-44) | AC50 (LCLC-103H) | AC50 (A427) | AC50 (NCI-H2405) | AC50 (NCI-H524) | AC50 (DV-90)
CN1c2ccc(F)cc2C(=O)CC12CCN(C(=O)NCc1ccc(F)c(NCCO)c1)CC2 [Example 36, 6′-fluoro-N-(4-fluoro-3-((2-hydroxyethyl)amino)benzyl)-1′-methyl-4′-oxo-3′,4′-dihydro-1′H-spiro[piperidine-4,2′-quinoline]-1-carboxamide] | > 1 µM | 0.781 µM | 0.308 µM | > 1 µM | > 1 µM | > 1 µM | 0.946 µM | 0.553 µM | 0.705 µM | > 1 µM | > 1 µM | 0.994 µM | > 1 µM | 0.347 µM
O=C1CC2(CCN(C(=O)NCc3ccc(F)cc3)CC2)Nc2ccc(F)cc21 [Example 40] | > 1 µM | 0.835 µM | 0.092 µM | > 1 µM | > 1 µM | > 1 µM | 0.293 µM | 0.196 µM | 0.44 µM | > 1 µM | > 1 µM | 0.474 µM | > 1 µM | 0.159 µM
